Experiment [1] deals with compound 48/80-induced gastric lesions. Nature of the experiment: gastric lesion test: lesions induced by compound 48/80. The experiment is classed as in vivo. The settings on record: Rattus norvegicus, read-out: gastric lesion test ED50.
The subject of experiment [2] is compound 48/80-induced lethality. Kind of experiment: protection of rats from compound 48/80-induced lethality. The experiment is classed as in vivo, male Wistar rats. The settings on record: Rattus norvegicus, sc, 4 h, s.c., compound 48/80 0.5 mg/kg i.v. 1 hour after treatment, 50% protected against lethality, read-out: 48/80-test ED50. The text has this:
PROTECTION OF RATS FROM COMPOUND 48/80-INDUCED LETHALITY
Compound 48/80, a mixture of oligomers obtained by condensation of 4-methoxy-N-methyl-phenethylamine and formaldehyde has been described as a potent histamine releasing agent (Int. Arch. Allergy, 13, 336 (1958)). The protection from compound 48/80-induced lethal circulatory collapse appears to be a simple way of evaluating quantitatively the antihistaminic activity of test-compounds. Male rats of an inbred Wistar strain, weighing 240-260 g were used in the experiment. After overnight starvation the rats were transferred to conditioned laboratories (temp.=21±1° C., relative humidity=65±5%). The rats were treated subcutaneously or orally with a test compound or with the solvent (NaCl solution, 0.9%). One hour after treatment there was injected intravenously compound 48/80, freshly dissolved in water, at a dose of 0.5 mg/kg (0.2 ml/100 g of body weight). In control experiments, wherein 250 solvent-treated animals were injected with the standard dose of compound 48/80 not more than 2.8% of the animals survived after 4 hours, is therefore considered to be a safe criterion of a protective effect of drug administration.
In this connection the ED50 -values are the minimal doses of the concerned compounds, administered in the subcutaneous way, whereby 50% of the rats are protected against compound 48/80-induced lethality.

Experiment [3] has as its system apomorphine-induced phenomena: agitation and stereotypic chewing. Kind of experiment: apomorphine (APO) test in rats, part of the combined APO-TRY-NOR test. The experiment is classed as in vivo, male Wistar rats. As to conditions: Rattus norvegicus, sc, 0.5 h, read-out: ED50 (APO)-rat.
Experiment [4] deals with tryptamine-induced bilateral tonic seizures. Kind of experiment: tryptamine (TRY) test in rats, part of the combined APO-TRY-NOR test. The experiment is classed as in vivo, male Wistar rats. The settings on record: Rattus norvegicus, sc, 1.5 h, tryptamine 40 mg/kg i.v. at 90 min.
In experiment [5] the test system is norepinephrine-induced mortality. Kind of experiment: norepinephrine (NOR) test in rats, part of the combined APO-TRY-NOR test. The experiment is classed as in vivo, male Wistar rats. As to conditions: Rattus norvegicus, sc, 2 h, norepinephrine 1.25 mg/kg i.v. at 120 min. As for the experimental part: THE COMBINED APOMORPHINE (APO)-, TRYPTAMINE (TRY)- AND NOREPINEPHRINE (NOR) TEST IN RATS
The experimental animals used in this test were adult male Wistar rats (weight 240±10 g). After an overnight fast, the animals were treated subcutaneously (1 ml/100 g) with an aqueous solution of the compound under investigation (time=zero) and put in isolated observation cages. […] At the end of this 1 hour period (time=90 minutes) the same animals were injected intravenously with 40 mg/kg of tryptamine (TRY) and the presence of the typical tryptamine-induced bilateral tonic seizures was noted. Two hours after pretreatment (time=120 minutes) finally, the same animals were challenged with 1.25 mg/kg intravenously of norepinephrine (NOR) and possible mortality was looked for up to 60 minutes later.
The table 1 gives the ED50 -values of a number of the compounds under consideration. As used herein, the ED50 -value represents the dose which protects 50% of the animals from apomorphine-, tryptamine- or norepinephrine-induced phenomena.

Experiment [6] deals with apomorphine-induced emesis. Nature of the experiment: apomorphine test in dogs (APO-dog). The experiment is classed as in vivo. As to conditions: Canis lupus familiaris, sc; beagle dogs; apomorphine 0.31 mg/kg s.c. 1 hour after compound; protection from emesis.
Experiment [7] relates to serotonin-induced contraction of rat caudal artery. Nature of the experiment: antagonistic activity on the effect of serotonin on the caudal artery of the rat. The settings on record: serotonin 40 ng/ml; minimal concentration reducing contraction amplitude to at least 50% of normal; 5 min. As to the method:
ANTAGONISTIC ACTIVITY ON THE EFFECT OF SEROTONIN ON THE CAUDAL ARTERY OF THE RAT
Caudal arteries from fasted male rats (210-235 g) were used in the test. Two helical strips having a length of 5-6 cm and a width of 2 mm. were obtained from each artery and mounted vertically in a 100 ml organ bath containing an oxygenated Krebs-Henseleit solution. Submaximal contractions of the arterial strips were produced by adding single doses of serotonin (40 ng/ml) to the organ bath for 2 minutes with each time an interval of 10 minutes. The amplitude of the contraction was measured before and 5 minutes after adding the drug. After washing out, the agonist was added again three times in order to see whether the contraction was restored and normalized.

Setting [8] is: rats, compound 48/80, distension of the stomach completely absent in 50% of rats.
Where [9] appears, read: s.c., rats, apomorphine 1.25 mg/kg i.v. 30 min after compound.

Structures are written as SMILES. Read-outs that look alike come from different tables or passages of the source.

`Cc1nc2n(c(=O)c1CCN1CC[C@H](c3c[nH]c4ccccc34)[C@H](C)C1)CCS2` (relative stereo) [compound 23, cis-2,3-dihydro-6-[2-[4-(1H-indol-3-yl)-3-methyl-1-piperidinyl]ethyl]-7-methyl-5H-thiazolo[3,2-a]pyrimidin-5-one]: the ED50 in experiment [1] (setting [8]) and in experiment [2] was 2.5 mg/kg each time.

With `Cc1nc2sc(C)c(C)n2c(=O)c1CCN1CCC(C(=O)c2ccc(F)cc2)CC1` [compound 24, 6-[2-[4-(4-fluorobenzoyl)-1-piperidinyl]ethyl]-2,3,7-trimethyl-5H-thiazolo[3,2-a]pyrimidin-5-one], the ED50 worked out at 0.63 mg/kg in experiment [3] (setting [9]); 0.04 mg/kg in experiment [4]; 0.63 mg/kg in experiment [5]; 0.12 mg/kg in experiment [6]; 0.01 mg/kg in experiment [1] (setting [8]); 0.08 mg/kg in experiment [2].

For the compound `Cc1nc2sc3ccccc3n2c(=O)c1CCN1CCC(c2c[nH]c3ccccc23)CC1` [compound 13, 3-[2-[4-(1H-indol-3-yl)-1-piperidinyl]ethyl]-2-methyl-4H-pyrimido[2,1-b]benzothiazol-4-one], the ED50 in experiment [3] was 1.25 mg/kg; in experiment [4], 0.31 mg/kg; in experiment [5], 0.16 mg/kg; in experiment [1] (setting [8]) it was 0.04 mg/kg; in experiment [2] it was 0.63 mg/kg. Also, in experiment [7], the “caudal artery rat ED50” value came out at 0.32 ng/mL.

`Cc1nc2n(c(=O)c1CCN1CCC(c3c[nH]c4ccccc34)CC1)CCS2` [compound 15, 2,3-dihydro-6-[2-[4-(1H-indol-3-yl)-1-piperidinyl]-ethyl]-7-methyl-5H-thiazolo[3,2-a]pyrimidin-5-one]: the ED50 in experiment [3] worked out at 1.25 mg/kg; in experiment [5], 1.25 mg/kg; in experiment [6] it was 0.008 mg/kg; in experiment [1] (setting [8]) it was 0.04 mg/kg; in experiment [2] it was 0.02 mg/kg. Also, the “caudal artery rat ED50” value in experiment [7] stood at 0.31 ng/mL.

With `Cc1nn2c(=O)c(CCN3CCC(C(=O)c4ccc(F)cc4)CC3)c(C)nc2s1` [compound 7], the ED50 is 2.5 mg/kg in experiment [3]; 0.31 mg/kg in experiment [4]; 0.63 mg/kg in experiment [5]; 0.5 mg/kg in experiment [6]; 0.0025 mg/kg in experiment [1] (setting [8]); 0.16 mg/kg in experiment [2]. Further, the “caudal artery rat ED50” value in experiment [7] worked out at 1.25 ng/mL.

As to `Cc1nc2n(c(=O)c1CCN1CCC(C(=O)c3ccc(F)cc3)CC1)CCCS2` [compound 2, 7-[2-[4-(4-fluorobenzoyl)-1-piperidinyl]ethyl]3,4-dihydro-8-methyl-2H,6H-pyrimido[2,1-b][1,3]thiazin-6-one], the ED50 worked out at 0.31 mg/kg in experiment [3]; 0.63 mg/kg in experiment [4]; 1.25 mg/kg in experiment [5]; 0.03 mg/kg in experiment [6]; 0.01 mg/kg in experiment [1] (setting [8]); 0.16 mg/kg in experiment [2]. Moreover, the “caudal artery rat ED50” value in experiment [7] was 0.32 ng/mL.

As to `Cc1nc2scc(C)n2c(=O)c1CCN1CCC(c2c[nH]c3ccccc23)CC1` [compound 11, 6-[2-[4-(1H-indol-3-yl)-1-piperidinyl]ethyl]-3,7-dimethyl-5H-thiazolo[3,2-a]pyrimidin-5-one], the ED50 came out at 0.08 mg/kg in experiment [3] (setting [9]); 0.04 mg/kg in experiment [4]; 0.16 mg/kg in experiment [5]; 0.004 mg/kg in experiment [6]; 0.0025 mg/kg in experiment [1] (setting [8]); 0.08 mg/kg in experiment [2]. For the same compound, the “caudal artery rat ED50” value in experiment [7] was determined as 0.14 ng/mL.

As for `Cc1nc2sc(C)c(C)n2c(=O)c1CCN1CCC(c2c[nH]c3ccccc23)CC1` [compound 25, 6-[2-[4-(1H-indol-3-yl)-1-piperidinyl]ethyl]-2,3,7-trimethyl-5H-thiazolo[3,2-a]pyrimidin-5-one], the ED50 was 0.31 mg/kg in experiment [3] (setting [9]); 0.16 mg/kg in experiment [4]; 0.63 mg/kg in experiment [5]; 0.015 mg/kg in experiment [6]; 0.16 mg/kg in experiment [1] (setting [8]); 0.04 mg/kg in experiment [2]. In addition, in experiment [7], the “caudal artery rat ED50” value came out at 0.32 ng/mL.

With `Cc1nc2sccn2c(=O)c1CCN1CCC(C(=O)c2ccc(F)cc2)CC1` [compound 5, 6-[2-[4-(4-fluorobenzoyl)-1-piperidinyl]ethyl]-7-methyl-5H-thiazolo[3,2-a]pyrimidin-5-one], the ED50 in experiment [3] (setting [9]) is 0.02 mg/kg; in experiment [4], 0.01 mg/kg; in experiment [5], 0.63 mg/kg; in experiment [6] it was 0.015 mg/kg; in experiment [1] (setting [8]), 0.005 mg/kg; in experiment [2], 0.31 mg/kg. In addition, the “caudal artery rat ED50” value in experiment [7] is 0.14 ng/mL.

`Cc1nn2c(=O)c(CCN3CCC(c4c[nH]c5ccccc45)CC3)c(C)nc2s1` [compound 14, 6-[2-[4-(1H-indol-3-yl)-1-piperidinyl]ethyl]-2,7-dimethyl-5H-1,3,4-thiadiazolo[3,2-a]pyrimidin-5-one]: the ED50 amounted to 5 mg/kg in experiment [3] (setting [9]); 1.25 mg/kg in experiment [4]; 0.63 mg/kg in experiment [5]; 0.04 mg/kg in experiment [1] (setting [8]); 0.04 mg/kg in experiment [2]. Moreover, the “caudal artery rat ED50” value in experiment [7] came out at 0.56 ng/mL.

On to `Cc1nc2sccn2c(=O)c1CCN1CCC(c2c[nH]c3ccccc23)CC1` [compound 12, 6-[2-[4-(1H-indol-3-yl)-1-piperidinyl]ethyl]-7-methyl-5H-thiazolo[3,2-a]pyrimidin-5-one], for which the ED50 in experiment [3] (setting [9]) amounted to 0.08 mg/kg; in experiment [4], 0.08 mg/kg; in experiment [5] it was 0.31 mg/kg; in experiment [6], 0.08 mg/kg; in experiment [1] (setting [8]) it was 0.08 mg/kg; in experiment [2], 0.02 mg/kg. In addition, the “caudal artery rat ED50” value in experiment [7] stood at 0.08 ng/mL.

For `Cc1nc2sccn2c(=O)c1CCN1CCC(c2c[nH]c3ccc(Cl)cc23)CC1` [compound 21, 6-[2-[4-(5-chloro-1H-indol-3-yl)-1-piperidinyl]ethyl]-7-methyl-5H-thiazolo[3,2-a]pyrimidin-5-one], the ED50 in experiment [3] amounted to 0.63 mg/kg; in experiment [5], 1.25 mg/kg; in experiment [1], 1.25 mg/kg; in experiment [2], 2.5 mg/kg.

In the case of `Cc1nc2scc(C)n2c(=O)c1CCN1CCC(c2c[nH]c3ccc(F)cc23)CC1` [compound 20, 6-[2-[4-(5-fluoro-1H-indol-3-yl)-1-piperidinyl]ethyl]-3,7-dimethyl-5H-thiazolo[3,2-a]pyrimidin-5-one], the ED50 in experiment [3] came out at 1.25 mg/kg; in experiment [4] it was 0.63 mg/kg; in experiment [6], 0.12 mg/kg; in experiment [1] (setting [8]), 0.31 mg/kg; in experiment [2], 0.63 mg/kg. In addition, in experiment [7], the “caudal artery rat ED50” value worked out at 0.31 ng/mL.

In the case of `Cc1nc2scc(C)n2c(=O)c1CCN1CCC(C(=O)c2ccc(F)cc2)CC1` [compound 4, 6-[2-[4-(4-fluorobenzoyl)-1-piperidinyl]ethyl]-3,7-dimethyl-5H-thiazolo[3,2-a]pyrimidin-5-one], the ED50 in experiment [3] stood at 0.16 mg/kg; in experiment [4], 0.005 mg/kg; in experiment [5], 1.25 mg/kg; in experiment [1] (setting [8]), 0.01 mg/kg; in experiment [2] it was 0.31 mg/kg. In experiment [7], the “caudal artery rat ED50” value amounted to 0.32 ng/mL.

For the compound `Cc1nc2sccn2c(=O)c1CCN1CCC(C(=O)c2ccc(F)cc2)(c2ccccc2)CC1` [compound 10, 6-[2-[4-(4-fuorobenzoyl)-4-phenyl-1-piperidinyl]ethyl]-7-methyl-5H-thiazolo-[3,2-a]pyrimidin-5-one], the ED50 in experiment [1] (setting [8]) amounted to 2.5 mg/kg.

The values are drawn from US4548938A, “5-H-1,3,4-thiadiazolo[3,2-a]pyrimidin-5-one compounds” (Janssen Pharmaceutica N.V., priority 1985, dated 1985).
